Assays:
[1] = dose of about 10 to about 20 mg/day; cited from earlier work
[2] = test system: Charcot Marie Tooth Disease symptoms (neuropathic pain); assay: Case of a subject with Charcot Marie Tooth Disease treated with sub-antimicrobial dose doxycycline; format: in vivo, human
Description: The subject described the pain during the daytime hours as a 2/10 and during the evening hours as a 6/10, and experienced this pain consistently for the prior 10 years. The subject began taking a sub-antimicrobial dose of doxycycline, i.e., 20 mg twice daily (i.e. Periostat®). […] Throughout the treatment period, the subject described the pain during daytime hours as a 1/10, and during the evening hours also as a 1/10. […] Within 1 week of discontinuing twice-daily sub-antimicrobial dose doxycycline treatment, the subject experienced a return of the neuropathic pain in a sporadic manner.

NC(=O)C1=C(O)C[C@@H]2C[C@@H]3Cc4cccc(O)c4C(=O)C3=C(O)[C@]2(O)C1=O [CMT-3, 6-demethyl-6-deoxy-4-dedimethylaminotetracycline]
plasma concentrations in humans [1]: about 1.0 μg/ml

C[C@H]1c2cccc(O)c2C(=O)C2=C(O)[C@]3(O)C(=O)C(C(N)=O)=C(O)[C@@H](N(C)C)[C@@H]3[C@@H](O)[C@@H]21 [doxycycline, 6α-deoxy-5-hydroxytetracycline]
adverse events ([2]; 20 mg twice daily for a period of 12 weeks): no adverse events were observed
time to return of neuropathic pain (sporadic) after discontinuing treatment ([2]; after 12 weeks of 20 mg twice daily): ≤ 1 week
pain during daytime hours (subject's description) ([2]; person with CMTD, 20 mg twice daily, throughout the treatment period (12 weeks), before treatment 2/10): 1/10
pain during the evening hours (subject's description) ([2]; person with CMTD, 20 mg twice daily, throughout the treatment period (12 weeks), before treatment 6/10): 1/10

Source: US12636293B2, “Methods of treating charcot-marie-tooth disease” (CMTx Biotech Inc., priority 2019, dated 2026)
